Where two headings read alike, the source gives them in different places. Each block holds one compound with its values, some of them ahead of it.
Legend:
HCT116^shTMPK− tumours = assay: Dynamic PET imaging, HCT116^shTMPK− xenografts; assay type: in vivo, female BALB/c athymic nude mice; settings: mutant HCT116^shTMPK− xenograft, 2–10 min post-injection, PET time–activity curve
Description: (§1) Female BALB/c athymic nude mice (6–8 weeks old), injected subcutaneously with either mutant HCT116^shTMPK− or WT HCT116 (Charles River UK Ltd., Margate, UK) at 5 × 10^6 cells per mouse, using dynamic PET imaging (Fig. 5A). Inoculations were performed under 2% isoflurane/O2 anesthesia 7 days after animal arrival. All mice were aged 10–16 weeks with similar weight (20 ± 2 g) and kept under standard conditions in individually ventilated cages (maximum of 6 animals per cage) prior to experiments.
BALB/c mice (Charles River UK Ltd, Margate, UK) were anesthetized and scanned on a dedicated small animal PET scanner (G4 Genesis, Sofie Biosciences, Culver City, CA, USA) following a bolus injection of 0.75 MBq of [^18F]SqFLT via a lateral tail vein cannula. Imaging was performed under 2% isoflurane/O2 anaesthesia. After tracer injection, emission scans were acquired in list-mode format (over 0–60 min – dynamic scans) to give decay-corrected values of radioactivity accumulation in tissues. The collected data were reconstructed with a 3-dimensional maximum likelihood estimation method 3D ML-EM (Sofie Biosciences). […] Tissue radioactivity uptake values were normalized to injected dose and mouse weight.

HCT116^shTMPK− cells = assay: In vitro cell uptake of radiotracer in TMPK knockdown HCT116^shTMPK− cells; assay type: cell-based, human; settings: 0.74 MBq, 60 min incubation, n = 6, mean ± SEM
Description: (§2) HCT116 (human colon cancer; LGC Standards, Teddington, Middlesex, UK) and subsequent knockdown HCT116^shTMPK− cells were cultured in Roswell Park Memorial Institute Medium 1640 supplemented with 10% foetal bovine serum, 2% Penicillin-Streptomycin (5000 U mL^−1) and 1% L-Glutamine. Cells were maintained in a 5% CO2 humidified incubator at 37 °C and grown in 6-well plates at 300 000 cells per well or 1 500 000 cells (per 15 cm petri dish for HPLC) for the stated cell lines. All cells were grown for 24 h in a volume of 2 mL per well or 10 mL per petri dish unless stated otherwise. All cells were maintained at 60–70% confluence prior to experiments, passaged in our laboratory for fewer than 6 months on receipt and were tested mycoplasma free. Experiments were performed using cells under 10 passages.
Guide RNA (gRNA) sequences for CRISPR/Cas9 were generated from CRISPR design web site (http://crispr.mit.edu/), provided by the Feng Zhang Lab.[33] […]
[^18F]SqFLT (0.74 mBq per well) was added to individual wells and cells were incubated at 37 °C in a humidified atmosphere of 5% CO2 for 15, 30, 60, 90 and 120 min. […] Cell lysates were homogenized and transferred to radioactivity counting tubes. Radioactivity in each sample was counted using an auto-gamma counter (Perkin Elmer, London, UK). Total protein per sample was quantified using the Pierce™ BCA protein assay method. […]

[1] = target: T1, ABCB1 transporter (HCT116 cells) (Homo sapiens, UniProt P08183); assay: Efflux assay with verapamil; assay type: cell-based; settings: verapamil 3 μM, 1 h pre-incubation then 1 h co-incubation
T1 construct: endogenous in cells; host or cells: HCT116 cells
Description: HCT116 cells were plated and maintained at 60–70% confluence in complete media conditions as previously described. Following 24 h, cell media was aspirated and treated with media containing 3 μM verapamil for 1 h prior to co-incubation with 0.74 mBq of [^18F]SqFLT. Cells were subsequently incubated for a further 1 h before being lysed and gamma counted as previously described.
9.0 Determining if [18F]SqFLT is a substrate for multidrug resistance proteins
0.00 Control 1 h Verapamil
Figure 34. Uptake of [18F]SqFLT in HCT116 cells following treatment with Verapamil. HCT 116 cells were pre-incubated with Verapamil (3 µM) for 60 min followed by co-incubated with [18F]SqFLT (0.74 MBq). One-way Anova statistical analysis and Dunnets post hoc was performed for n = 5 samples.
10.0 Time activity curves (TAC)
Figure 35. Time-activity curves derived from region-of-interest analysis of PET imaging data (including detail of uptake kinetics between 0-5 min of [18F]SqFLT injection) in bladder, kidneys and gallbladder. Data represent mean ± SEM (n>5) and is expressed as % of injected […]
1 M. Yun, S. J. Oh, H. J. Ha, J. S. Ryu and D. H. Moon, Nucl. Med. Biol., 2003, 30, 151–
2 C. N. Tetzlaff, I. Schwope, C. F. Bleczinski, J. A. Steinberg and C. Richert, Tetrahedron
(also on this page, place not known: [18F]-SqFLT (% ID/mg protein) uptake of 4215–4218.)
(1 picture or pasted object on this page, not shown here)

WT HCT116 cells = assay: In vitro cell uptake of radiotracer in WT HCT116 cells; assay type: cell-based, human
Description: as §2
[^18F]SqFLT (0.74 mBq per well) was added to individual wells and cells were incubated at 37 °C in a humidified atmosphere of 5% CO2 for 15, 30, 60, 90 and 120 min. Following incubation, cells were washed three times with 1× PBS and lysed once ice for 15 min using RIPA buffer (1 mL per well). Cell lysates were homogenized and transferred to radioactivity counting tubes. Radioactivity in each sample was counted using an auto-gamma counter (Perkin Elmer, London, UK). Total protein per sample was quantified using the Pierce™ BCA protein assay method. Decay corrected counts were normalized to protein concentration as percentage incubated dose per milligram of cellular protein (%ID per mg protein) in each sample.

[2] = tested on: TK1 and ENT1/2 ([^18F]FLT uptake in HCT116 cells); assay: In vitro competition assay between [^18F]FLT and thymidine/[^19F]SqFLT; assay type: cell-based, human
Description: HCT116 were plated and maintained at 60–70% confluence in complete media conditions as previously described. […] Treated cells were incubated at 37 °C for 20 min before [^18F]FLT was added to each well to yield a final concentration of 0.74 mBq per well. Cells were subsequently incubated in a humidified atmosphere of 5% CO2 for 1 h before being lysed and gamma counted as previously described.
(§3) 6.0 Metabolite analysis in microsomes
Figure 31. Representative HPLC chromatograms showing A) parent [18F]SqFLT, and incubation of [18F]SqFLT with HLM for B) 30 mins and C) 60 mins.
The experiment was performed in triplicate (n = 3)
7.0 Gene structure and positions of CRISPR and PCR primers.
Figure 32. Diagram (not to scale) indicates overall gene structure and positions of the CRISPRS […]
8.0 Determining if [18F]SqFLT is a substrate for TK1 and ENT1/2 […]
and B) [19F]SqFLT to determine the effect on [18F]FLT uptake. HCT116 cells (at 60 – 70 % […]
for 20 min prior to co-incubation with [18F]FLT (0.74 MBq). Radioactive uptake normalised […]

[3] = In vitro metabolite analysis in human liver microsomes; assay type: in vitro ADME; settings: HLM, 37 °C, over 60 min
Description: A published method for performing in vitro metabolite analysis using liver microsomes was adapted.[35] [^18F]SqFLT (40 μL, 3.5 MBq) was added to human liver microsomes (50 μL, 1 mg mL^−1), NADPH regeneration system A (50 μL), NADPH regeneration system B (10 μL) and PBS (400 μL, 0.1 M) in a 1.5 mL microcentrifuge tube. The mixture was gently vortexed and incubated in aerobic conditions at 37 °C with gentle shaking for either 30 min or 60 min using a thermomixer. The mixture was transferred into a 15 mL plastic centrifuge tube and proteins were precipitated with ice-cold MeCN + 0.1% TFA (2 mL) and vortexed. Proteins were pelleted by centrifugation (12 000g, 3 min), and the supernatant removed and filtered (0.2 μm). The supernatant was diluted (1 : 9) with H2O + 0.1% TFA and injected onto a HPLC instrument bearing a 1 mL injection loop and PosiRam (LabLogic, Sheffield, UK) metabolite detector. Samples of a known volume were taken from the supernatant and the entire protein pellet were counted using an auto-gamma counter (Perkin Elmer, London, UK) to determine the extraction efficiency. All experiments were performed in triplicate (n = 3).
as §3
Figure 31. Representative HPLC chromatograms showing A) parent [18F]SqFLT, and incubation of [18F]SqFLT with HLM for B) 30 mins and C) 60 mins. The extraction efficiency was 96.1 ± 0.4 %. […]

[4] = Log D7.5 determination (shake flask method); assay type: physicochemical; settings: octanol/PBS pH 7.5, mean ± SD, n = 3
Description: The hydrophilicity of [^18F]SqFLT (>90% RCP) was determined experimentally by its Log D7.5 using the shake flask method. […] Being a highly hydrophilic molecule, we were sceptical that [^18F]SqFLT would be cell permeable and aimed to determine this experimentally in radioactive cell uptake experiments.
To a 1.5 mL microcentrifuge tube was added PBS pH 7.5 (500 μL) and octanol (500 μL). The tube was shaken for 15 min, followed by centrifugation (13 000g, 5 min). [^18F]SqFLT (3 MBq) in PBS (<5% EtOH) was added and the samples shaken for 30 min, followed by centrifugation (13 000g, 5 min). Aliquots from the octanol layer and PBS layer were removed (100 μL) and placed in counting tubes. Radioactivity was measured using a γ-counter and the partition coefficient was calculated using Log D7.5 = log10[Oct/PBS]. The Log D7.5 value was reported as mean ± SD (n = 3, triplicate analysis).

WT HCT116 tumours = assay: Dynamic PET imaging, WT HCT116 xenografts; assay type: in vivo, female BALB/c athymic nude mice
Description: as §1
BALB/c mice (Charles River UK Ltd, Margate, UK) were anesthetized and scanned on a dedicated small animal PET scanner (G4 Genesis, Sofie Biosciences, Culver City, CA, USA) following a bolus injection of 0.75 MBq of [^18F]SqFLT via a lateral tail vein cannula. Imaging was performed under 2% isoflurane/O2 anaesthesia. After tracer injection, emission scans were acquired in list-mode format (over 0–60 min – dynamic scans) to give decay-corrected values of radioactivity accumulation in tissues. The collected data were reconstructed with a 3-dimensional maximum likelihood estimation method 3D ML-EM (Sofie Biosciences). Cumulative images of the data were used for visualization of radiotracer uptake and to define tissue volumes of interest (VOIs) using Siemens Inveon Research Workplace software (Siemens Molecular Imaging, Inc. Knoxville, USA). Tissue radioactivity uptake values were normalized to injected dose and mouse weight.

[5] = cited from earlier work
[6] = design: method as in PMID 12217356, PMID 27319940; settings: cited from earlier work

T1 sequence (P08183 whole entry): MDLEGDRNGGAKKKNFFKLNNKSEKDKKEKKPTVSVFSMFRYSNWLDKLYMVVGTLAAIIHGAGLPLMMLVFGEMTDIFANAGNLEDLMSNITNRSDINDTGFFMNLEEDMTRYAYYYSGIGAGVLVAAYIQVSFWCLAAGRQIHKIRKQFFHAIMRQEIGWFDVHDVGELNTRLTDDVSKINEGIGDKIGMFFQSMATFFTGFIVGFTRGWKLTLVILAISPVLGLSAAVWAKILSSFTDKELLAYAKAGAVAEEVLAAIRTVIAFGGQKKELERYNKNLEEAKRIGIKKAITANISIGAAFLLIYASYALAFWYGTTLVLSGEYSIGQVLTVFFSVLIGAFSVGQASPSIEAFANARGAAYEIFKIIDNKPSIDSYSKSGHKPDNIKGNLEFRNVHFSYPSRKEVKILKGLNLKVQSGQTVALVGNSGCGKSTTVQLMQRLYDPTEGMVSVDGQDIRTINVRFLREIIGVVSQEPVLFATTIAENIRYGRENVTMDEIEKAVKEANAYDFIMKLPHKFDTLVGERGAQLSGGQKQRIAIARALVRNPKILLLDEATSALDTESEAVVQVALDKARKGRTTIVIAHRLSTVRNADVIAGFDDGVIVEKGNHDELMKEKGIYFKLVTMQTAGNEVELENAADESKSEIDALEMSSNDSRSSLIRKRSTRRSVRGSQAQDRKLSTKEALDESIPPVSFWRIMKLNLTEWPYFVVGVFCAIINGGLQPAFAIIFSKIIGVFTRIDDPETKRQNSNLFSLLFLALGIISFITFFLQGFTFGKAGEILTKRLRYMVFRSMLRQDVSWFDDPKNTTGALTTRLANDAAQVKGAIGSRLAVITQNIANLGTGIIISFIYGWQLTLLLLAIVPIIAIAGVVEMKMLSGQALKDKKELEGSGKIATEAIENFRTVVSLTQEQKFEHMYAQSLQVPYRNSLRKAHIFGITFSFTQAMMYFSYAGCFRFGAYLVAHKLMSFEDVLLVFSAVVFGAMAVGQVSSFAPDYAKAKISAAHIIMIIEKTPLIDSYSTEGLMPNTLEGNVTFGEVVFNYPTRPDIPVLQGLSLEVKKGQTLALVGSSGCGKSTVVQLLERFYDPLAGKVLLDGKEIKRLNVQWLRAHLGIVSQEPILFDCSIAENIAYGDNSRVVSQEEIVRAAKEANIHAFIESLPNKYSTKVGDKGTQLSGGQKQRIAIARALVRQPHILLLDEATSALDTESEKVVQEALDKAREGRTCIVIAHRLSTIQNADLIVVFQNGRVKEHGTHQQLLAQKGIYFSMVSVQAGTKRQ

peak radiotracer uptake in tumour (HCT116^shTMPK− tumours): 1.58 ± 0.12 % ID g^−1
effect of verapamil on radiotracer uptake [1]: did not change radiotracer uptake
metabolism in human liver microsomes [3]: no metabolism over 60 min
logD [4]: -2.9 ± 0.24
peak radiotracer uptake in tumour (WT HCT116 tumours; WT HCT116 xenograft, 2–10 min post-injection, PET time–activity curve): 2.69 ± 0.12 % ID g^−1
time of peak radiotracer uptake in tumour (WT HCT116 tumours; post-injection, WT and mutant xenografts, 60 min dynamic PET scan): 2 to 10 min
Compound: Cc1cn([C@H]2C[C@H]([18F])[C@@H](CNc3c(O)c(=O)c3=O)O2)c(=O)[nH]c1=O [[^18F]SqFLT, 3′-[^18F]fluorothymidine-5′-squaryl]
uptake of [^18F]SqFLT (HCT116^shTMPK− cells): 0.14 ± 0.04 % ID g^−1
tracer uptake in vitro (WT HCT116 cells; HCT116 and HCT116^shTMPK− cells, as summed up in the abstract): < 0.3 % ID mg^−1
uptake of [^18F]SqFLT (WT HCT116 cells; WT HCT116, 0.74 MBq, 60 min incubation, n = 6, mean ± SEM): 0.24 ± 0.04 % ID mg^−1
drop of uptake (WT HCT116 cells; WT HCT116, between 15–120 min): 2 fold
time of peak uptake (WT HCT116 cells; WT HCT116, uptake kinetic profile over 120 min): 0 to 15 min
dependence of uptake on TK1 and nucleoside transporters (ENT1/2) ([2]; inferred from competition of [^19F]SqFLT (1–10 μg mL^−1) with [^18F]FLT): independent of TK1 and nucleoside transporters (ENT1/2)
route of elimination (WT HCT116 tumours; mice, PET time-activity curves): eliminated through the kidney, liver, and bladder

Compound: O=c1c(O)c(NCc2ccccc2)c1=O [3-(benzylamino)-4-hydroxycyclobut-3-ene-1,2-dione]
permeability ([5]; PAMPA): significantly higher permeability compared to a phosphate analogue
Log D7.4 ([5]; pH 7.4): −1.4

Compound: 3′-[^18F]fluorothymidine-5′-monophosphate [[^18F]FLTMP]
monophosphate pKa ([6]; first value): 1.6
monophosphate pKa ([6]; second value): 6.6

Compound: Cc1cn([C@H]2C[C@H](F)[C@@H](CNc3c(O)c(=O)c3=O)O2)c(=O)[nH]c1=O [[^19F]SqFLT, 5′-amino-5′-N-(2-hydroxy-3,4-dioxocyclobuten-1-yl)-5′,3′-deoxy-3′-fluoro-thymidine]
effect on [^18F]FLT uptake ([2]; 10^−3–10^1 μg mL^−1, 20 min before [^18F]FLT, then 1 h): did not inhibit [^18F]FLT uptake

Source: publication PMC8696986, “Synthesis and evaluation of 3′-[^18F]fluorothymidine-5′-squaryl as a bioisostere of 3′-[^18F]fluorothymidine-5′-monophosphate” (RSC Advances, 2021)
